Reference: ChEMBL document CHEMBL5385848, “Discovery of novel hydroxyamidine based indoleamine 2,3-dioxygenase 1 (IDO1) and thioredoxin reductase 1 (TrxR1) dual inhibitors” (Eur J Med Chem, 2023)
The source made the active and inactive calls. No cut-off for these calls is given here.

Tests used:
[1] = system: HCT-116; assay: Induction of apoptosis in human HCT-116 cells assessed as apoptotic rate at 2.5 uM incubated for 24 hrs by Annexin-V/PI staining based flow cytometry analysis; assay type: functional
[2] = system: Mus musculus; assay: In vivo inhibition of TrxR1 in human HCT-116 cells xenografted in athymic nude BALB/c mouse assessed as reduction in TrxR1 activity at 15 to 60 mg/kg, ig administered daily for 28 days and measured every 4 days; assay type: functional, organism-based; conditions: dose 15-60 mg/kg, time 28.0 day
[3] = system: HeLa; assay: Cytotoxicity against human HeLa cells transfected with IDO1 siRNA incubated for 24 hrs by CCK-8 assay (reference value: 9.74 +/- 1.64 uM); assay type: functional, cell-based
[4] = target: T1, Indoleamine 2,3-dioxygenase 1 (Homo sapiens, UniProt P14902); assay: Inhibition of IDO1 in human HCT-116 cells using L-Tryptophan as substrate incubated for 24 hrs by microplate reader analysis; assay type: cell-based
[5] = system: HCT-116; assay: Cytotoxicity against TrxR1 knockdown human HCT-116 cells incubated for 24 hrs by CCK-8 assay (reference value: 3.08 +/- 0.55 uM); assay type: functional, cell-based; conditions: HCT-116, 24 h
[6] = system: HCT-116; assay: Induction of ROS generation in human HCT-116 cells incubated for 4 hrs by DCFH-DA staining based flow cytometry analysis; assay type: functional, cell-based; conditions: dose 2.5-10 µM
[7] = system: CT26; assay: Antitumor activity against mouse CT26 cells implanted in athymic nude BALB/c mouse assessed as reduction in nTreg lymphocytes at 15 to 60 mg/kg, ig administered daily for 28 days and measured every 4 days by immunofluorescence analysis; assay type: functional, organism-based; conditions: dose 15-60 mg/kg, time 28.0 day
[8] = target: T2, Thioredoxin reductase 1, cytoplasmic (Rattus norvegicus, UniProt O89049); assay: Inhibition of recombinant rat TrxR1 incubated for 1 hr in presence of NADPH by microplate reader analysis
T2 sequence (O89049 whole entry): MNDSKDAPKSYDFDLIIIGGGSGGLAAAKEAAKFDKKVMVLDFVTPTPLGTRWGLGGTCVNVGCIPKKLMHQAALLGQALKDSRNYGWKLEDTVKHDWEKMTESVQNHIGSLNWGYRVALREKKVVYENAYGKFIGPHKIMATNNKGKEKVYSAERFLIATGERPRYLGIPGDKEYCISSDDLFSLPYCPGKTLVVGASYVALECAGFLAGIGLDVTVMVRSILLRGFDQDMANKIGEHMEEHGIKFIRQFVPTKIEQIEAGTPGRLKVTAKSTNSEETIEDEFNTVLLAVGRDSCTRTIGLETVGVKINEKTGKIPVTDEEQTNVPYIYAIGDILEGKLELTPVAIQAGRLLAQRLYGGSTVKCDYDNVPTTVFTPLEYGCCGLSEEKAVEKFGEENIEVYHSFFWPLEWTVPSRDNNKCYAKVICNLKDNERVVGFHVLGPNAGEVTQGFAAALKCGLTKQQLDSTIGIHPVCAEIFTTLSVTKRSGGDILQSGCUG

[9] = system: IDO1; assay: Selectivity ratio of IC50 for cytotoxicity against human HeLa cells to EC50 for inhibition of IDO1 in human HeLa cells; assay type: cell-based; conditions: read-out: Ratio IC50/EC50
[10] = system: HCT-116; assay: Induction of apoptosis in human HCT-116 cells assessed as apoptotic rate at 5 uM incubated for 24 hrs by Annexin-V/PI staining based flow cytometry analysis; assay type: functional
[11] = system: HeLa; assay: Induction of ROS generation in human HeLa cells incubated for 4 hrs by DCFH-DA staining based flow cytometry analysis; assay type: functional, cell-based; conditions: dose 2.5-10 µM
[12] = target: T1, Indoleamine 2,3-dioxygenase 1; assay: Inhibition of IDO1 in human HeLa cells using L-Tryptophan as substrate incubated for 24 hrs by microplate reader analysis; assay type: cell-based
[13] = target: T3, Indoleamine 2,3-dioxygenase 2 (Homo sapiens, UniProt Q6ZQW0); assay: Inhibition of IDO2 (unknown origin) using D-Trp as substrate incubated for 1 hr
T3 sequence (Q6ZQW0 whole entry): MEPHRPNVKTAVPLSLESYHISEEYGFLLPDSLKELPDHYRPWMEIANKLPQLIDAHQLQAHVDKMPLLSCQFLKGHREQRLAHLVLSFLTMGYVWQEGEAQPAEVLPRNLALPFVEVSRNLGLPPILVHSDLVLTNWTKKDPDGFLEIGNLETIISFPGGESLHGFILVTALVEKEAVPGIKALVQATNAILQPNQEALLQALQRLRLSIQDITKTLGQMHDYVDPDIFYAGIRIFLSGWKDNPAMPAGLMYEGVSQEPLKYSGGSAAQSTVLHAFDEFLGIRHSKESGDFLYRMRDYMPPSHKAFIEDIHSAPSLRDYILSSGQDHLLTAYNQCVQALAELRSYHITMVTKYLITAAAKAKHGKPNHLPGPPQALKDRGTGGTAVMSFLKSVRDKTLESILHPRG

[14] = system: HCT-116; assay: Induction of apoptosis in human HCT-116 cells assessed as apoptotic rate at 10 uM incubated for 24 hrs by Annexin-V/PI staining based flow cytometry analysis; assay type: functional
[15] = target: Indoleamine 2,3-dioxygenase 1 (Mus musculus) (UniProt P28776); assay: In vivo inhibition of IDO1 in BALB/c mouse implanted with mouse CT-26 cells assessed as reduction in tumor Kyn level at 60 mg/kg, po administered once daily by LC-MS/MS analysis; assay type: functional, organism-based
[16] = target: Indoleamine 2,3-dioxygenase 1 (Mus musculus) (UniProt P28776); assay: In vivo inhibition of IDO1 in BALB/c mouse implanted with mouse CT-26 cells assessed as increase in tumor Trp level at 60 mg/kg, po administered once daily by LC-MS/MS analysis; assay type: functional, organism-based
[17] = system: HeLa; assay: Induction of cell cycle arrest in human HeLa cells assessed as G1/S phase arrest at 2.5 to 10 uM incubated for 24 hrs by PI staining based flow cytometry analysis; assay type: functional; conditions: dose 2.5-10 µM
[18] = system: CT26; assay: Antitumor activity against mouse CT26 cells implanted in athymic nude BALB/c mouse assessed as reduction in CD4+CD25+Foxp3+ lymphocytes at 15 to 60 mg/kg, ig administered daily for 28 days and measured every 4 days by immunofluorescence analysis; assay type: functional, organism-based; conditions: dose 15-60 mg/kg, time 28.0 day
[19] = Toxicity in athymic BALB/c mouse xenografted with human HCT-116 cells assessed as change in spleen morphology at 15 to 60 mg/kg, ig administered daily for 28 days and measured every 4 days; assay type: organism-based; conditions: in vivo, po, 672 h, dose 15-60 mg/kg, time 28 day
[20] = target: Thioredoxin reductase 2, mitochondrial (Homo sapiens, UniProt Q9NNW7); assay: Inhibition of TrxR2 (unknown origin) incubated for 1 hr in presence of NADPH by microplate reader analysis
[21] = system: IDO1; assay: Selectivity ratio of IC50 for cytotoxicity against human HCT-116 cells to EC50 for inhibition of IDO1 in human HCT-116 cells; assay type: cell-based; conditions: read-out: Ratio IC50/EC50
[22] = Cytotoxicity against human HeLa cells incubated for 48 hrs by CCK-8 assay; assay type: toxicity, cell-based
[23] = system: HCT-116; assay: Cytotoxicity against human HCT-116 cells incubated for 24 hrs CCK-8 assay; assay type: functional, cell-based; conditions: HCT-116, 24 h
[24] = system: HCT-116; assay: Induction of cell cycle arrest in human HCT-116 cells assessed as G1/S phase arrest at 2.5 to 10 uM pretreated with NAC for 2 hrs followed by compound addition and measured after 12 hrs by PI staining based flow cytometry analysis; assay type: functional; conditions: dose 2.5-10 µM
[25] = system: HeLa; assay: Induction of ROS generation in human HeLa cells at 10 uM incubated for 4 hrs by DCFH-DA staining based flow cytometry analysis; assay type: functional, cell-based
[26] = Cytotoxicity against mouse CT26 cells incubated for 48 hrs by CCK-8 assay; assay type: toxicity, cell-based

T1 sequence (P14902 whole entry): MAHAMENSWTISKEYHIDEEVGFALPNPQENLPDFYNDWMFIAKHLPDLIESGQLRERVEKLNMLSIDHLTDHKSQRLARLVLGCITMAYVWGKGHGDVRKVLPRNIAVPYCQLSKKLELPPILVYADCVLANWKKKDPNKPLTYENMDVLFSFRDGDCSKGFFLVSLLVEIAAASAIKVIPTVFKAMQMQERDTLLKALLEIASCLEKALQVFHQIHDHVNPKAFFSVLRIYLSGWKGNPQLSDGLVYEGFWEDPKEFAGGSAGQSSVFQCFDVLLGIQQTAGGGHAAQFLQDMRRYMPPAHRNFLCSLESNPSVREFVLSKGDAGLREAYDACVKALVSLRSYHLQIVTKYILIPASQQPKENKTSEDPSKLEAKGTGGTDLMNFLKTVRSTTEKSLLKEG
Chain of Indoleamine 2,3-dioxygenase 1 (Mus musculus) (P28776 whole entry, looked up): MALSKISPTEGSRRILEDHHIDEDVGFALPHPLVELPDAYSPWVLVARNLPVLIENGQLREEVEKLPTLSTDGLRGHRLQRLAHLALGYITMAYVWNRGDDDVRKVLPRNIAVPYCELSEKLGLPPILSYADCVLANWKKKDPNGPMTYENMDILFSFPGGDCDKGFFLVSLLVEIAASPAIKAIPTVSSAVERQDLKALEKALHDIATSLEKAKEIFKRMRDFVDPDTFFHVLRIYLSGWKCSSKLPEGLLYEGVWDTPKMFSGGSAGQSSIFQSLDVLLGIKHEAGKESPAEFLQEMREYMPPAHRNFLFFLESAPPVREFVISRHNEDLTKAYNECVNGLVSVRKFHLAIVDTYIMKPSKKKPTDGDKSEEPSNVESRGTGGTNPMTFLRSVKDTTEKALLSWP
Chain of Thioredoxin reductase 2, mitochondrial (Q9NNW7 whole entry): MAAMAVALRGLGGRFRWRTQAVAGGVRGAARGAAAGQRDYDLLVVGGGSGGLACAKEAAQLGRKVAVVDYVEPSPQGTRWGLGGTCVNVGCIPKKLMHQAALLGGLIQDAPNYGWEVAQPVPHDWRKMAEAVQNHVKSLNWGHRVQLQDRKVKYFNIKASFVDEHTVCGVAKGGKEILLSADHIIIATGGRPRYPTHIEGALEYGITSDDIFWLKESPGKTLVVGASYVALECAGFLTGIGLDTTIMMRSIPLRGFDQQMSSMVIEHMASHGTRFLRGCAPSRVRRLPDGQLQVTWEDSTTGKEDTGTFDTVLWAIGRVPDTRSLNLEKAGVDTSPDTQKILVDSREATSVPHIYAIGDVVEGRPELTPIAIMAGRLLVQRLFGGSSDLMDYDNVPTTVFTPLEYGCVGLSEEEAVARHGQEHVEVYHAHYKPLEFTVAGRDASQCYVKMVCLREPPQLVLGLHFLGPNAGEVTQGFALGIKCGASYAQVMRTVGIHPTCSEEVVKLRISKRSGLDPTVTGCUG

EC50 [4]: 34.1 µM
IC50 [8]: 3 µM
EC50 [12]: 45.6 µM
IC50 [13]: 22.2 µM
Activity [15]: Active
Activity [16]: Active
IC50 [20]: > 500 µM
SMILES: O=C(Cc1ccc(O)cc1)Nc1nnc(CCCNc2nonc2/C(=N\O)Nc2ccc(F)c(Br)c2)s1
Activity [1]: 22.57%
Activity [2]: Active
IC50 [3]: 10.1 µM
IC50 [5]: 1.52 µM
Activity [6]: Dose-Dependent Effect
Activity [7]: Active
selectivity ratio [9]: 224
Activity [10]: 30.64%
Activity [11]: Dose-Dependent Effect
Activity [14]: 60.55%
Activity [17]: Active
Activity [18]: Active
Activity [19]: Non-Toxic
selectivity ratio [21]: 101
IC50 at 48 h [22]: 10.2 µM
IC50 [23]: 3.33 µM
Activity [24]: inactive
Activity [25]: Active
IC50 at 48 h [26]: 12.4 µM
